Assay results reported in patent publication US7138411B2, “Substituted benzopyran derivatives for the treatment of inflammation” (G.D. Searle & Co., priority 1997, dated 2006).

Experiments:
COX-2 [1] = biological target: T1, COX-2 (UniProt P35354); assay: Fast assay for COX-2 activity (PGE2 ELISA); type: biochemical, human or murine; details: fast assay: 10 min pre-incubation at 25° C., reaction stopped after two minutes, pH 7.5
T1 sequence (P35354 1-604): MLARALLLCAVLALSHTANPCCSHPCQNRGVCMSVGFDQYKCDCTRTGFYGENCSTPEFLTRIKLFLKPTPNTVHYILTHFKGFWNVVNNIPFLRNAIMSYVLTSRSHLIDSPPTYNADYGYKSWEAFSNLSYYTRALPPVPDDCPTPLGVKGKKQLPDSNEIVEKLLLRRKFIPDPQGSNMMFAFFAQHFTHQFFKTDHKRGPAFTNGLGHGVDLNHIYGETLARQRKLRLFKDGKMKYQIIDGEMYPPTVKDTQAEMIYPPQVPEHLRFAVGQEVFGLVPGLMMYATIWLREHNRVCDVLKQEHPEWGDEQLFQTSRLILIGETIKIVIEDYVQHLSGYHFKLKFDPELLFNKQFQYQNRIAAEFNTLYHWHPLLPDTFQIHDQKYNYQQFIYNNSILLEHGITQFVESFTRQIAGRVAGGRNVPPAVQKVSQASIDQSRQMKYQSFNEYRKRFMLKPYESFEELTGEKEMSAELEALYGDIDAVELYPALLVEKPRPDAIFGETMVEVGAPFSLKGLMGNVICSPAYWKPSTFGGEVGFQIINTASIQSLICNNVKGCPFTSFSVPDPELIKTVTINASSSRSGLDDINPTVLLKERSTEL
Description: The homogenate was centrifuged at 10,000×G for 30 minutes, and the resultant supernatant was stored at −80° C. before being assayed for COX activity.
Fast Assay for COX-1 and COX-2 Activity
COX activity was assayed as PGE2 formed/μg protein/time using an ELISA to detect the prostaglandin released. CHAPS-solubilized insect cell membranes containing the appropriate COX enzyme were incubated in a potassium phosphate buffer (0.05 M Potassium phosphate, pH 7.5, 2 μM phenol,1 μM heme, 300 μM epinephrine) with the addition of 20 μl of 100 μM arachidonic acid (10 μM). […] The PGE2 formed was measured by standard ELISA technology (Cayman Chemical).

Analgesia (Table I) = type: in vivo; parameters: inhibition in vivo: dose or concentration left out as unconfirmed; details: read-out: ANALGESIA % Inhibition; for inhibition in vivo at 10 mg/kg: @ 10 mpk (values marked *)
carrageenan foot edema = assay: Rat carrageenan foot pad edema test; type: in vivo, Male Sprague-Dawley rats; parameters: inhibition in vivo: dose or concentration left out as unconfirmed; details: po, 3 h, dosed orally, foot volume three hours after carrageenan, read-out: RAT PAW EDEMA % Inhibition; for inhibition in vivo at 10 mg/kg: @ 10 mpk (values marked *)
Description: Rat Carrageenan Foot Pad Edema Test
Male Sprague-Dawley rats were selected in each group so that the average body weight was as close as possible. Rats were fasted with free access to water for over sixteen hours prior to the test. The rats were dosed orally (1 mL) with compounds suspended in vehicle containing 0.5% methylcellulose and 0.025% surfactant, or with vehicle alone. One hour later a subplantar injection of 0.1 mL of 1% solution of carrageenan/sterile 0.9% saline was administered and the volume of the injected foot was measured with a displacement plethysmometer connected to a pressure transducer with a digital indicator. Three hours after the injection of the carrageenan, the volume of the foot was again measured. The average foot swelling in a group of drug-treated animals was compared with that of a group of placebo-treated animals and the percentage inhibition of edema was determined (Otterness and Bliven, Laboratory Models for Testing NSAIDs, in Non-steroidal Anti-Inflammatory Drugs, (J. Lombardino, ed. 1985)).

COX-1 = COX-1 (UniProt P23219); assay: Assay for COX-1 activity (PGE2 ELISA); details: read-out: COX-1 IC50; 10–20 minutes pre-incubation, reaction stopped after ten minutes, pH 8.0
COX-2 [2] = biological target: T1, COX-2; assay: Assay for COX-2 activity (PGE2 ELISA); details: read-out: COX-2 IC50; 10–20 minutes pre-incubation, reaction stopped after ten minutes, pH 8.0
Description: Recombinant baculoviruses were isolated by transfecting 4 μg of baculovirus transfer vector DNA into SF9 insect cells (2×10^8) along with 200 ng of linearized baculovirus plasmid DNA by the calcium phosphate method. […] Recombinant viruses were purified by three rounds of plaque purification and high titer (10^7–10^8 pfu/mL) stocks of virus were prepared. For large scale production, SF9 insect cells were infected in 10 liter fermentors (0.5×10^6/mL) with the recombinant baculovirus stock such that the multiplicity of infection was 0.1. […] The homogenate was centrifuged at 10,000×G for 30 minutes, and the resultant supernatant was stored at −80° C. before being assayed for COX activity.
Assay for COX-1 and COX-2 Activity
COX activity was assayed as PGE2 formed/μg protein/time using an ELISA to detect the prostaglandin released. CHAPS-solubilized insect cell membranes containing the appropriate COX enzyme were incubated in a potassium phosphate buffer (50 mM, pH 8.0) containing epinephrine, phenol, and heme with the addition of arachidonic acid (10 μM). […] The PGE2 formed was measured by standard ELISA technology (Cayman Chemical).

O=C(O)C1=Cc2cc(Cl)ccc2OC1C(F)(F)F (centres unmarked) [Example 1, 6-Chloro-2-trifluoromethyl-2H-1-benzopyran-3-carboxylic acid]
IC50 (COX-2 [1]): 0.3 µM | inhibition in vivo (Analgesia (Table I)): 58% | inhibition in vivo (carrageenan foot edema): 57%

CC(C)(C)c1cc2c(cc1Cl)C=C(C(=O)O)C(C(F)(F)F)O2 (centres unmarked) [Example 8, 6-Chloro-7-(1,1-dimethylethyl)-2-trifluoromethyl-2H-1-benzopyran-3-carboxylic acid]
inhibition in vivo (Analgesia (Table I)): 36% | inhibition in vivo (carrageenan foot edema): 43%

CC(C)(C)c1ccc2c(c1)OC(C(F)(F)F)C(C(=O)O)=C2 (centres unmarked) [Example 12, 7-(1,1-Dimethylethyl)-2-trifluoromethyl-2H-1-benzopyran-3-carboxylic acid]
IC50 (COX-2 [1]): 7 µM | inhibition in vivo (Analgesia (Table I)): 37% | inhibition in vivo (carrageenan foot edema): 30%

O=C(O)C1=Cc2cc(OC(F)(F)F)ccc2OC1C(F)(F)F (centres unmarked) [Example 16, 6-Trifluoromethoxy-2-trifluoromethyl-2H-1-benzopyran-3-carboxylic acid]
IC50 (COX-1): 51 µM | inhibition in vivo (Analgesia (Table I)): 34% | inhibition in vivo (carrageenan foot edema): 48%

O=C(O)C1=Cc2cc(I)ccc2OC1C(F)(F)F (centres unmarked) [Example 24, 6-Iodo-2-trifluoromethyl-2H-1-benzopyran-3-carboxylic acid]
inhibition in vivo (Analgesia (Table I)): 25% | inhibition in vivo (carrageenan foot edema): 29% | melting point: 168 to 170 °C

O=C(O)C1=Cc2cc(Cl)c(Cl)cc2OC1C(F)(F)F (centres unmarked) [Example 31, 6,7-Dichloro-2-trifluoromethyl-2H-1-benzopyran-3-carboxylic acid]
IC50 (COX-2 [1]): < 0.1 µM | inhibition in vivo at 10 mg/kg (Analgesia (Table I)): 37% | inhibition in vivo at 10 mg/kg (carrageenan foot edema): 39%

O=C(O)C1=Cc2cc(Cl)cc(Cl)c2OC1C(F)(F)F (centres unmarked) [Example 32, 6,8-Dichloro-2-trifluoromethyl-2H-1-benzopyran-3-carboxylic acid]
inhibition in vivo at 10 mg/kg (Analgesia (Table I)): 73% | inhibition in vivo at 10 mg/kg (carrageenan foot edema): 59%

Cc1cc(Cl)cc2c1OC(C(F)(F)F)C(C(=O)O)=C2 (centres unmarked) [Example 38, 6-Chloro-8-methyl-2-trifluoromethyl-2H-1-benzopyran-3-carboxylic acid]
IC50 (COX-1): 57 µM | inhibition in vivo (Analgesia (Table I)): 55% | inhibition in vivo (carrageenan foot edema): 47%

Cc1cc(Cl)c2c(c1)C=C(C(=O)O)C(C(F)(F)F)O2 (centres unmarked) [Example 39, 8-Chloro-6-methyl-2-trifluoromethyl-2H-1-benzopyran-3-carboxylic acid]
IC50 (COX-1): > 100 µM | inhibition in vivo (Analgesia (Table I)): 8% | inhibition in vivo (carrageenan foot edema): 18%

O=C(O)C1=Cc2cc(Cl)cc(F)c2OC1C(F)(F)F (centres unmarked) [Example 46, 6-Chloro-8-fluoro-2-trifluoromethyl-2H-1-benzopyran-3-carboxylic acid]
IC50 (COX-2 [1]): 0.2 µM | IC50 (COX-1): 43 µM | inhibition in vivo (Analgesia (Table I)): 67% | inhibition in vivo (carrageenan foot edema): 59% | IC50 (COX-2 [2]): 74 µM | melting point: 190.8 to 193 °C

O=C(O)C1=Cc2cc(Cl)ccc2SC1C(F)(F)F (centres unmarked) [Example 65, 6-Chloro-2-trifluoromethyl-2H-1-benzothiopyran-3-carboxylic acid]
IC50 (COX-2 [1]): < 0.1 µM | inhibition in vivo (Analgesia (Table I)): 32% | inhibition in vivo (carrageenan foot edema): 43% | melting point: 188.8 to 198.7 °C

N#Cc1ccc2c(c1)C=C(C(=O)O)C(C(F)(F)F)O2 (centres unmarked) [Example 79, 6–Cyano-2-(trifluoromethyl)-2H-1-benzopyran-3-carboxylic acid]
inhibition in vivo (Analgesia (Table I)): 53% | inhibition in vivo (carrageenan foot edema): 45% | melting point: 185.1 to 186.1 °C

O=C(O)C1=Cc2cc(C(F)F)ccc2OC1C(F)(F)F (centres unmarked) [Example 81, 6-(Difluoromethyl)-2-(trifluoromethyl)-2H-1-benzopyran-3-carboxylic acid]
IC50 (COX-2 [1]): < 0.1 µM | IC50 (COX-1): 1.6 µM | inhibition in vivo (Analgesia (Table I)): 44% | inhibition in vivo (carrageenan foot edema): 36% | IC50 (COX-2 [2]): < 0.1 µM

O=C(O)C1=Cc2c(cc(Cl)c(Cl)c2Cl)OC1C(F)(F)F (centres unmarked) [Example 83, 5,6,7-Trichloro-2-(trifluoromethyl)-2H-1-benzopyran-3-carboxylic acid]
IC50 (COX-2 [1]): < 0.1 µM | IC50 (COX-1): 1.4 µM | inhibition in vivo (Analgesia (Table I)): 65% | inhibition in vivo (carrageenan foot edema): 56% | IC50 (COX-2 [2]): < 0.1 µM

O=C(O)C1=Cc2cc(Cl)c(Cl)c(Cl)c2OC1C(F)(F)F (centres unmarked) [Example 84, 6,7,8-Trichloro-2-(trifluoromethyl)-2H-1-benzopyran-3-carboxylic acid]
IC50 (COX-1): 2.8 µM | inhibition in vivo (Analgesia (Table I)): 24% | inhibition in vivo (carrageenan foot edema): 44% | IC50 (COX-2 [2]): < 0.1 µM

O=C(O)C1=Cc2cc(Oc3ccc(C(F)(F)F)cc3)cc(Cl)c2OC1C(F)(F)F (centres unmarked) [Example 105]
IC50 (COX-2 [1]): 0.3 µM | IC50 (COX-1): 0.1 µM | inhibition in vivo (Analgesia (Table I)): 69% | inhibition in vivo (carrageenan foot edema): 75% | IC50 (COX-2 [2]): 0.2 µM | melting point: 223.7 to 226 °C

C#Cc1ccc2c(c1)C=C(C(=O)O)C(C(F)(F)F)O2 (centres unmarked) [Example 139, 6-(Ethynyl)-2-(trifluoromethyl)-2H-1-benzopyran-3-carboxylic acid]
inhibition in vivo (Analgesia (Table I)): 41% | inhibition in vivo (carrageenan foot edema): 42% | melting point: 198 to 200 °C

O=C(O)C1=Cc2cc(Cl)ccc2NC1C(F)(F)F (centres unmarked) [Example 157, 6-Chloro-1,2-dihydro-2-(trifluoromethyl)-3-quinolinecarboxylic acid]
inhibition in vivo at 10 mg/kg (Analgesia (Table I)): 36% | inhibition in vivo at 10 mg/kg (carrageenan foot edema): 44%

O=C(O)C1=Cc2cc(Cl)cc(Cl)c2NC1C(F)(F)F (centres unmarked) [Example 158, 6,8-Dichloro-1,2-dihydro-2-(trifluoromethyl)-3-quinolinecarboxylic acid]
inhibition in vivo at 10 mg/kg (Analgesia (Table I)): 55% | inhibition in vivo at 10 mg/kg (carrageenan foot edema): 45%

O=C(O)C1=Cc2cc(Br)ccc2NC1C(F)(F)F (centres unmarked) [Example 161, 6-Bromo-1,2-dihydro-2-(trifluoromethyl)-3-quinolinecarboxylic acid]
inhibition in vivo (Analgesia (Table I)): 56% | inhibition in vivo (carrageenan foot edema): 53%

CN1c2ccc(Cl)cc2C=C(C(=O)O)C1C(F)(F)F (centres unmarked) [Example 165, 6-Chloro-1,2-dihydro-1-methyl-2-(trifluoromethyl)-3-quinolinecarboxylic acid]
inhibition in vivo at 10 mg/kg (Analgesia (Table I)): 33% | inhibition in vivo at 10 mg/kg (carrageenan foot edema): 30% | melting point: 208 to 209 °C

O=C(O)C1=Cc2cc(Cl)ccc2N[C@@H]1C(F)(F)F [Example 172, (S)-6-chloro-1,2-dihydro-2-(trifluoromethyl)-3-quinolinecarboxylic acid]
inhibition in vivo (Analgesia (Table I)): 67% | inhibition in vivo (carrageenan foot edema): 57%

O=C(O)C1=Cc2cc(Cl)c(Oc3cccnc3Cl)cc2OC1C(F)(F)F (centres unmarked) [Example 200, 6-Chloro-7-[(2-chloro-3-pyridinyl)oxy]-2-(trifluoromethyl)-2H-1-benzopyran-3-carboxylic acid]
IC50 (COX-2 [1]): < 0.1 µM | IC50 (COX-1): 28.5 µM | IC50 (COX-2 [2]): < 0.1 µM | melting point: 213.4 to 216.2 °C

O=C(O)C1=Cc2cc(Cl)c(Oc3cccnc3)cc2OC1C(F)(F)F (centres unmarked) [Example 201, 6-Chloro-7-[3-pyridinyloxy]-2-(trifluoromethyl)-2H-1-benzopyran-3-carboxylic acid]
IC50 (COX-2 [1]): < 0.1 µM | IC50 (COX-1): 63.8 µM | IC50 (COX-2 [2]): 0.1 µM | melting point: 237.8 to 238.8 °C

O=C(O)C1=Cc2cc(Cl)c(OCC(F)(F)F)cc2OC1C(F)(F)F (centres unmarked) [Example 209]
IC50 (COX-2 [1]): 0.2 µM | IC50 (COX-1): > 100 µM | IC50 (COX-2 [2]): > 100 µM | melting point: 174.4 to 176 °C

C#Cc1ccc2c(c1)C=C(C(=O)O)C(C(F)(F)F)N2 (centres unmarked) [Example 210, 1,2-Dihydro-6-ethynyl-2-(trifluoromethyl)-3-quinolinecarboxylic acid]
IC50 (COX-2 [1]): 1.7 µM | IC50 (COX-1): > 100 µM | IC50 (COX-2 [2]): 10 µM | melting point: 259 to 268 °C

O=C(O)C1=Cc2cc(C#Cc3ccccc3)ccc2NC1C(F)(F)F (centres unmarked) [Example 211, 1,2-Dihydro-6-(phenylethynyl)-2-(trifluoromethyl)-3-quinolinecarboxylic acid]
IC50 (COX-2 [1]): 1.9 µM | IC50 (COX-1): 3.8 µM | IC50 (COX-2 [2]): 2.4 µM | melting point: 218 to 219 °C
